Tests used:
[1] = biological target: Activin receptor type-1B (Homo sapiens) (UniProt P36896); test: Binding affinity to wild-type human ACVR1B (S187 to I505 residues) expressed in bacterial expression system assessed as residual binding level at 10 uM by Kinomescan method relative to control
[2] = biological target: RAC-alpha serine/threonine-protein kinase (Homo sapiens) (UniProt P31749); test: Binding affinity to wild-type human partial length AKT1 expressed in bacterial expression system assessed as residual binding level at 10 uM by Kinomescan method relative to control
[3] = biological target: Mitotic checkpoint serine/threonine-protein kinase BUB1 (Homo sapiens) (UniProt O43683); test: Binding affinity to wild-type human partial length BUB1 (Q724 to K1085 residues) expressed in mammalian expression system assessed as residual binding level at 10 uM by Kinomescan method relative to control
[4] = biological target: Calcium/calmodulin-dependent protein kinase type 1 (Homo sapiens) (UniProt Q14012); test: Binding affinity to wild-type human full length CAMK1 (M1 to L370 residues) expressed in bacterial expression system assessed as residual binding level at 10 uM by Kinomescan method relative to control
[5] = biological target: Macrophage colony-stimulating factor 1 receptor (Homo sapiens) (UniProt P07333); test: Binding affinity to wild-type human partial length CSF1R (I564 to S939 residues) expressed in bacterial expression system assessed as residual binding level at 10 uM by Kinomescan method relative to control
[6] = biological target: Casein kinase I isoform gamma-1 (Homo sapiens) (UniProt Q9HCP0); test: Binding affinity to wild-type human partial length CSNK1G1 (T15 to S353 residues) expressed in bacterial expression system assessed as residual binding level at 10 uM by Kinomescan method relative to control
[7] = test system: Epidermal growth factor receptor (Homo sapiens), P00533 [UNDEFINED MUTATION]; test: Binding affinity to human partial length EGFR E746-A750del mutant expressed in bacterial expression system assessed as residual binding level at 10 uM by Kinomescan method relative to control
[8] = biological target: Ephrin type-A receptor 6 (Homo sapiens) (UniProt Q9UF33); test: Binding affinity to wild-type human partial length EPHA6 (Y700 to E1046 residues) expressed in bacterial expression system assessed as residual binding level at 10 uM by Kinomescan method relative to control
[9] = biological target: Ephrin type-B receptor 4 (Homo sapiens) (UniProt P54760); test: Binding affinity to wild-type human partial length EPHB4 (H585 to G892 residues) expressed in bacterial expression system assessed as residual binding level at 10 uM by Kinomescan method relative to control
[10] = biological target: Fibroblast growth factor receptor 3 (Homo sapiens) (UniProt P22607); test: Binding affinity to wild-type human partial length FGFR3 (R442 to S771 residues) expressed in bacterial expression system assessed as residual binding level at 10 uM by Kinomescan method relative to control
[11] = test system: Receptor-type tyrosine-protein kinase FLT3 (Homo sapiens), P36888 [N841I]; test: Binding affinity to human partial length FLT3 N841I mutant (V592 to Y969 residues) expressed in bacterial expression system assessed as residual binding level at 10 uM by Kinomescan method relative to control
[12] = biological target: Homeodomain-interacting protein kinase 3 (Homo sapiens) (UniProt Q9H422); test: Binding affinity to wild-type human partial length HIPK3 (M153 to N562 residues) expressed in mammalian expression system assessed as residual binding level at 10 uM by Kinomescan method relative to control
[13] = biological target: Tyrosine-protein kinase Lck (Homo sapiens) (UniProt P06239); test: Binding affinity to wild-type human partial length LCK (R207 to P509 residues) expressed in bacterial expression system assessed as residual binding level at 10 uM by Kinomescan method relative to control
[14] = biological target: LIM domain kinase 1 (Homo sapiens) (UniProt P53667); test: Binding affinity to wild-type human full length LIMK1 (M1 to D647 residues) expressed in bacterial expression system assessed as residual binding level at 10 uM by Kinomescan method relative to control
[15] = biological target: Serine/threonine-protein kinase 10 (Homo sapiens) (UniProt O94804); test: Binding affinity to wild-type human partial length LOK (E16 to V314 residues) expressed in bacterial expression system assessed as residual binding level at 10 uM by Kinomescan method relative to control
Serine/threonine-protein kinase 10 (Homo sapiens), sequence (O94804 whole entry, looked up, the tested form may be a part): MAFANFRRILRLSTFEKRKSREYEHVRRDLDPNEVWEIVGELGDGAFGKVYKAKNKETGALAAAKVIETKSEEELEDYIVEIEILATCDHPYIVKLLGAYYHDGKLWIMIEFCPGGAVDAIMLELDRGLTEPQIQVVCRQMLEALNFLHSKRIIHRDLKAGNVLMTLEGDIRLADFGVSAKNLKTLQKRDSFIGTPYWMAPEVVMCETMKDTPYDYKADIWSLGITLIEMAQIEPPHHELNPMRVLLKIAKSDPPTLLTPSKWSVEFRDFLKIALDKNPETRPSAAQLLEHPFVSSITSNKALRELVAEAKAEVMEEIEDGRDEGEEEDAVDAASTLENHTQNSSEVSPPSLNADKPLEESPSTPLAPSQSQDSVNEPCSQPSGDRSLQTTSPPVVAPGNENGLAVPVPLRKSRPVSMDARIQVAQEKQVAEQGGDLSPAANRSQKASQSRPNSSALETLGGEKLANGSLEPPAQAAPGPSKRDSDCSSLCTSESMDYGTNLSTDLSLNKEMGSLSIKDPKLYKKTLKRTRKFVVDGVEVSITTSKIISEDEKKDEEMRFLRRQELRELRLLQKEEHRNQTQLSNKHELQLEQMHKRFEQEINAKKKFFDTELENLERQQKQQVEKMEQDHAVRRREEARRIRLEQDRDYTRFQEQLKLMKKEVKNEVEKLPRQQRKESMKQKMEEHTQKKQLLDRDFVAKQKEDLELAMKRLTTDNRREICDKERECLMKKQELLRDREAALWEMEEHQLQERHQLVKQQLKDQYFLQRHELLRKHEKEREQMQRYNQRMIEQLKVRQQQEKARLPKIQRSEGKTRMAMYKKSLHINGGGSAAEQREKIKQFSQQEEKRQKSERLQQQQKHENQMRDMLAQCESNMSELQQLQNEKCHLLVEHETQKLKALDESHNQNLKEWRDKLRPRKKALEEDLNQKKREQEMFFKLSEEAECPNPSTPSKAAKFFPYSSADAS

[16] = biological target: MAP kinase-interacting serine/threonine-protein kinase 1 (Homo sapiens) (UniProt Q9BUB5); test: Binding affinity to wild-type human full length MKNK1 (M1 to L424 residues) expressed in mammalian expression system assessed as residual binding level at 10 uM by Kinomescan method relative to control
MAP kinase-interacting serine/threonine-protein kinase 1 (Homo sapiens), sequence (Q9BUB5 whole entry, looked up, the tested form may be a part): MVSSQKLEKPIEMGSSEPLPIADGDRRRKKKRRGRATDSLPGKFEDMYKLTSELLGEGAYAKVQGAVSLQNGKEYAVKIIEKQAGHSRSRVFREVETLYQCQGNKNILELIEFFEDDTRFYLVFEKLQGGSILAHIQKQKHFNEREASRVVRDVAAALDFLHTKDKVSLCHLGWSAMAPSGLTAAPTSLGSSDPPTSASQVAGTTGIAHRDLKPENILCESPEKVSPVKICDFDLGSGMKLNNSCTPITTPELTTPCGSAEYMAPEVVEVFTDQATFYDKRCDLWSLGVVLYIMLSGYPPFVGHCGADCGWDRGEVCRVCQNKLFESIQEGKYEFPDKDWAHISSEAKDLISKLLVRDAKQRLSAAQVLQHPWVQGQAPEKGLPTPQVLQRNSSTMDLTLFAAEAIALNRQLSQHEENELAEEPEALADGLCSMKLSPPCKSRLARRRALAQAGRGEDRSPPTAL

[17] = biological target: Cyclin-dependent kinase 15 (Homo sapiens) (UniProt Q96Q40); test: Binding affinity to wild-type human full length PFTAIRE2 (M1 to W384 residues) expressed in bacterial expression system assessed as residual binding level at 10 uM by Kinomescan method relative to control
[18] = biological target: 1-phosphatidylinositol 3-phosphate 5-kinase (Homo sapiens) (UniProt Q9Y2I7); test: Binding affinity to wild-type human partial length PIKFYVE (F1512 to C2098 residues) expressed in mammalian expression system assessed as residual binding level at 10 uM by Kinomescan method relative to control
1-phosphatidylinositol 3-phosphate 5-kinase (Homo sapiens), sequence (Q9Y2I7 whole entry, the tested form may be a part): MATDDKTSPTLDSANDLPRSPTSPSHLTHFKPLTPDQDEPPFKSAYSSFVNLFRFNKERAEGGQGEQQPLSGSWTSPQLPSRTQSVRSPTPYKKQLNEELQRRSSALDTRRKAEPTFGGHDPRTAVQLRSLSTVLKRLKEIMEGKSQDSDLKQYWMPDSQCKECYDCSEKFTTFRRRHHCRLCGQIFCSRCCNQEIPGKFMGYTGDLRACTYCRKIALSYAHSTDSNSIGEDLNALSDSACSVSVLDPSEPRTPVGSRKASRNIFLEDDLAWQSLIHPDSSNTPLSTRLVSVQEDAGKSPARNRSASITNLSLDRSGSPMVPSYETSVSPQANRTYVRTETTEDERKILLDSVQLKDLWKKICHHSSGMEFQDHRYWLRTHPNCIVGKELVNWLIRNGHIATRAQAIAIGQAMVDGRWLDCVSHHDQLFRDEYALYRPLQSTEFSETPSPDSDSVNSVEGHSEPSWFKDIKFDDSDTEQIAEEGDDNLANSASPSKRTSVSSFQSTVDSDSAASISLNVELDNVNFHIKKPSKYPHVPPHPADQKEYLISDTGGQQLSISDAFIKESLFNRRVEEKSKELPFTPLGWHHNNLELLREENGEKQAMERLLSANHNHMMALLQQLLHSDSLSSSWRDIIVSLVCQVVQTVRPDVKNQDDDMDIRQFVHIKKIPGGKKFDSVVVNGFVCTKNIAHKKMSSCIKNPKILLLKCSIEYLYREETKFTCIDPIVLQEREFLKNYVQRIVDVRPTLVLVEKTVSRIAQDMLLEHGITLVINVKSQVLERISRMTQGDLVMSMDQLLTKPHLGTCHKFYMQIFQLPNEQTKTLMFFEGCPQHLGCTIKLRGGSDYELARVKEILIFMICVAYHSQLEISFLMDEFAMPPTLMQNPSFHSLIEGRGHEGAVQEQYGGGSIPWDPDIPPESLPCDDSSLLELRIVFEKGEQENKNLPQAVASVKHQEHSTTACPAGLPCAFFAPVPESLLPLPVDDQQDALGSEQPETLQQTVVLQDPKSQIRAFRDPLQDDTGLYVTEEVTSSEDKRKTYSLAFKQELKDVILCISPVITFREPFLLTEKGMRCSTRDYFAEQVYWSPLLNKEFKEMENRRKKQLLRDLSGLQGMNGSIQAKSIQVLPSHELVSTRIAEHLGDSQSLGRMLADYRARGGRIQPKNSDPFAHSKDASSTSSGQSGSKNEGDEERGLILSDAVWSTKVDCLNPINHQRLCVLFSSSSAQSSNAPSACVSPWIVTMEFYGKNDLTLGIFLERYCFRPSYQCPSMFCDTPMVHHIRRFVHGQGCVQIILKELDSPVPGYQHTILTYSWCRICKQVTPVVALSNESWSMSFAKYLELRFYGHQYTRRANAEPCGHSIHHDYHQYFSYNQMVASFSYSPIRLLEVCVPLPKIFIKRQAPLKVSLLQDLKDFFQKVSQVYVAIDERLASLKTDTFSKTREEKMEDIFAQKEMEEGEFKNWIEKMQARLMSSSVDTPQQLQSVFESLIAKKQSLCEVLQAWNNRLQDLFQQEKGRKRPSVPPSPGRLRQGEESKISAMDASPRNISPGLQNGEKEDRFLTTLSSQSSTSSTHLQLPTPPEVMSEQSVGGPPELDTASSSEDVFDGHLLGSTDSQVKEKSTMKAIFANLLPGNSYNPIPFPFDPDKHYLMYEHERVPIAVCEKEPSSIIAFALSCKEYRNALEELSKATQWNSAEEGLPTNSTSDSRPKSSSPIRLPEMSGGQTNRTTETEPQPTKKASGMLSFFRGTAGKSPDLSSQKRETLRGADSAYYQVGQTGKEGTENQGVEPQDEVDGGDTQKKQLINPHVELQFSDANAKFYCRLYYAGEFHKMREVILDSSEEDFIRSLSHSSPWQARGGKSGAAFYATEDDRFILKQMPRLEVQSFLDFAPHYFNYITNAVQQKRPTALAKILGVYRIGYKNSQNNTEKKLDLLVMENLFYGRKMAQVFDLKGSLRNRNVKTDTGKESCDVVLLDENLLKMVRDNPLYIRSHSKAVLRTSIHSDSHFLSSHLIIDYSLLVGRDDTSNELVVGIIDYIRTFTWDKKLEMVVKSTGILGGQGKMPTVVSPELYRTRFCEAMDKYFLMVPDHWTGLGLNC

[19] = biological target: Interferon-induced, double-stranded RNA-activated protein kinase (Homo sapiens) (UniProt P19525); test: Binding affinity to wild-type human partial length PRKR (F247 to C551 residues) expressed in bacterial expression system assessed as residual binding level at 10 uM by Kinomescan method relative to control
[20] = biological target: cAMP-dependent protein kinase catalytic subunit PRKX (Homo sapiens) (UniProt P51817); test: Binding affinity to wild-type human partial length PRKX (M1 to F358 residues) expressed in bacterial expression system assessed as residual binding level at 10 uM by Kinomescan method relative to control
cAMP-dependent protein kinase catalytic subunit PRKX (Homo sapiens), sequence (P51817 whole entry, the tested form may be a part): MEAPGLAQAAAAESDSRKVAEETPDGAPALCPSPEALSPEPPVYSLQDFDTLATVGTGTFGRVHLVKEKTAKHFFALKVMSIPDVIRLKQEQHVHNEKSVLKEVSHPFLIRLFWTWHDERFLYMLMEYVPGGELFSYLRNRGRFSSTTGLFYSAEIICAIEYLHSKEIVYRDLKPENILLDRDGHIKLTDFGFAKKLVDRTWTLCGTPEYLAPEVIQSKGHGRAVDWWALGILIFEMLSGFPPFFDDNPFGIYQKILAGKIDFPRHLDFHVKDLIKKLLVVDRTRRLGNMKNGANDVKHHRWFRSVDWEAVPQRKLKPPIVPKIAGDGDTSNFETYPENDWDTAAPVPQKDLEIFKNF

[21] = biological target: Serine/threonine-protein kinase RIO2 (Homo sapiens) (UniProt Q9BVS4); test: Binding affinity to wild-type human partial length RIOK2 (M1 to D313 residues) expressed in mammalian expression system assessed as residual binding level at 10 uM by Kinomescan method relative to control
Serine/threonine-protein kinase RIO2 (Homo sapiens), sequence (Q9BVS4 whole entry, looked up, the tested form may be a part): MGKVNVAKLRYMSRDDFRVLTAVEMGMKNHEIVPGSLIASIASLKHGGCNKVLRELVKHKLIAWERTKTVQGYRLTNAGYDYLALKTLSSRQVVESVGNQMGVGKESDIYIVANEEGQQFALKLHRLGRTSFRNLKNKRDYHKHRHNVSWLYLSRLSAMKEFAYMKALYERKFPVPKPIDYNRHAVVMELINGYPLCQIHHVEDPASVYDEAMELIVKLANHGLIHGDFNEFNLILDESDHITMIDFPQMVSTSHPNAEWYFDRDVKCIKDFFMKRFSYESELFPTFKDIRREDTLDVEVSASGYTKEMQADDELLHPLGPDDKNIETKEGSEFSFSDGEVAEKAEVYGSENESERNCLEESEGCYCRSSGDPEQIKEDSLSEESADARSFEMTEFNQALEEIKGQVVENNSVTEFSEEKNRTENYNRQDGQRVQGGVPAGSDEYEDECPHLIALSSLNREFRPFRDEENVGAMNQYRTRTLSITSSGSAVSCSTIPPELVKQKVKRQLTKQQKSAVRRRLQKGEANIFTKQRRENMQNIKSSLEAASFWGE

[22] = biological target: Proto-oncogene tyrosine-protein kinase ROS (Homo sapiens) (UniProt P08922); test: Binding affinity to wild-type human partial length ROS1 (A1921 to N2240 residues) expressed in bacterial expression system assessed as residual binding level at 10 uM by Kinomescan method relative to control
[23] = biological target: Ribosomal protein S6 kinase beta-1 (Homo sapiens) (UniProt P23443); test: Binding affinity to wild-type human partial length S6K1 (M1 to S421 residues) expressed in mammalian expression system assessed as residual binding level at 10 uM by Kinomescan method relative to control
[24] = biological target: Mitogen-activated protein kinase kinase kinase 19 (Homo sapiens) (UniProt Q56UN5); test: Binding affinity to wild-type human partial length YSK4 (T1019 to H1328 residues) expressed in mammalian expression system assessed as residual binding level at 10 uM by Kinomescan method relative to control

Activin receptor type-1B (Homo sapiens), sequence (P36896 whole entry, the tested form may be a part): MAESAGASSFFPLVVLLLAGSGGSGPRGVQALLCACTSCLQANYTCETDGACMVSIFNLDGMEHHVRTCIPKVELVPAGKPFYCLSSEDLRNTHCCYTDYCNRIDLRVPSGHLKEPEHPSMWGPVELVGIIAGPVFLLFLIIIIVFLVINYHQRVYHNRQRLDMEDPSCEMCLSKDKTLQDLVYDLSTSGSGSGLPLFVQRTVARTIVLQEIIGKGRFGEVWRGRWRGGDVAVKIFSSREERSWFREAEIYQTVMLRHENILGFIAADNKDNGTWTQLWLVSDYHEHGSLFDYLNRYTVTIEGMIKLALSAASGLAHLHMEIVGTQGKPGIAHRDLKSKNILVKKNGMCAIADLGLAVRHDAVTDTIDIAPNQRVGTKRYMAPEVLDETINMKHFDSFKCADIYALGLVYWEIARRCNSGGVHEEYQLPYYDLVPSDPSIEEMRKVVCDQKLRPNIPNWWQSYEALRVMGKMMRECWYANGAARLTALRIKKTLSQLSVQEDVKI

Molecule `O=C(Nc1cc(-c2cn(CCNc3c4c(nc5ccccc35)CCCC4)nn2)ccn1)Nc1cccc2c1C1CCCCN1C2=O` (racemic) has an Activity [1] of 67%, an Activity [2] of 100% and an Activity [3] of 6.4%. It also gave an Activity [4] of 52%, an Activity [5] of 0.2% and an Activity [6] of 63%. It also gave an Activity [7] of 79%, an Activity [8] of 97% and an Activity [9] of 100%. For the same molecule, the Activity [10] was 54%, the Activity [11] was 0% and the Activity [12] was 99%. For the same molecule, the Activity [13] was 23%, the Activity [14] was 100% and the Activity [15] was 99%. The Activity [16] was 100%, the Activity [17] was 11% and the Activity [18] was 15%. It also gave an Activity [19] of 45%, an Activity [20] of 15% and an Activity [21] of 22%. It also gave an Activity [22] of 100%, an Activity [23] of 10% and an Activity [24] of 8.5%.

From ChEMBL document CHEMBL4390652, “Design, biological evaluation and X-ray crystallography of nanomolar multifunctional ligands targeting simultaneously acetylcholinesterase and glycogen synthase kinase-3” (Eur J Med Chem, 2019)
